Experiment: Inhibition of recombinant human IL-17A/IL-17AR protein-protein interaction using TMB substrate compound added on IL17A precoated plate and followed by IL-17AR addition by ELISA

SMILES	IC50 [µM]
CO[C@]1(C)C[C@H](O[C@H]2[C@H](C)[C@@H](O[C@@H]3O[C@H](C)C[C@H](N(C)C)[C@H]3O)[C@](C)(O)C[C@@H](C)CN(C)C(=O)C[C@@H](Cc3ccc(NC(=O)[C@H](Cc4ccccc4Cl)NC(=O)Cc4ccccc4)cc3)NC(=O)[C@@H](C)NC(=O)[C@@H]2C)O[C@@H](C)[C@@H]1O	> 30
CO[C@]1(C)C[C@H](O[C@H]2[C@H](C)[C@@H](O[C@@H]3O[C@H](C)C[C@H](N(C)C)[C@H]3O)[C@](C)(O)C[C@@H](C)CN(C)C(=O)[C@H](C(C)C)NC(=O)C[C@H](Cc3ccc(NC(=O)[C@H](Cc4ccccc4Cl)NC(=O)Cc4ccccc4)cc3)NC(=O)[C@@H]2C)O[C@@H](C)[C@@H]1O	> 30
COc1ccc(C(=O)N[C@@H](Cc2ccccc2Cl)C(=O)Nc2ccc(C[C@@H]3CC(=O)N(C)C[C@H](C)C[C@@](C)(O)[C@H](O[C@@H]4O[C@H](C)C[C@H](N(C)C)[C@H]4O)[C@@H](C)[C@H](O[C@H]4C[C@@](C)(OC)[C@@H](O)[C@H](C)O4)[C@@H](C)C(=O)N[C@@H](C(C)C)C(=O)N3)cc2)cc1	0.397
CO[C@]1(C)C[C@H](O[C@H]2[C@H](C)[C@@H](O[C@@H]3O[C@H](C)C[C@H](N(C)C)[C@H]3O)[C@](C)(O)C[C@@H](C)CN(C)C(=O)[C@H](Cc3ccc(NC(=O)[C@H](Cc4ccccc4Cl)NC(=O)Cc4ccccc4)cc3)NC(=O)[C@H](C(C)C)NC(=O)[C@@H]2C)O[C@@H](C)[C@@H]1O	15.9
CO[C@]1(C)C[C@H](O[C@H]2[C@H](C)[C@@H](O[C@@H]3O[C@H](C)C[C@H](N(C)C)[C@H]3O)[C@](C)(O)C[C@@H](C)CN(C)C(=O)C[C@@H](Cc3ccc(NC(=O)[C@H](Cc4ccccc4Cl)NC(=O)Cc4ccccc4)cc3)NC(=O)[C@H](C3CC3)NC(=O)[C@@H]2C)O[C@@H](C)[C@@H]1O	2.62
CO[C@]1(C)C[C@H](O[C@H]2[C@H](C)[C@@H](O[C@@H]3O[C@H](C)C[C@H](N(C)C)[C@H]3O)[C@](C)(O)C[C@@H](C)CN(C)C(=O)C[C@@H](Cc3ccc(NC(=O)[C@H](Cc4ccccc4Cl)NC(=O)Cc4ccccc4)cc3)NC(=O)[C@H](C(C)C)CNC(=O)[C@@H]2C)O[C@@H](C)[C@@H]1O	2.9
CO[C@]1(C)C[C@H](O[C@H]2[C@H](C)[C@@H](O[C@@H]3O[C@H](C)C[C@H](N(C)C)[C@H]3O)[C@](C)(O)C[C@@H](C)CN(C)C(=O)C[C@@H](Cc3ccc(NC(=O)[C@H](Cc4ccccc4Cl)NC(=O)Cc4ccccc4)cc3)NC(=O)[C@@H]3CCCN3C(=O)[C@@H]2C)O[C@@H](C)[C@@H]1O	> 30
CO[C@]1(C)C[C@H](O[C@H]2[C@H](C)[C@@H](O[C@@H]3O[C@H](C)C[C@H](N(C)C)[C@H]3O)[C@](C)(O)C[C@@H](C)CN(C)C(=O)C[C@@H](Cc3ccc(NC(=O)[C@H](Cc4ccccc4Cl)NC(=O)Cc4ccccc4)cc3)NC(=O)CCNC(=O)[C@@H]2C)O[C@@H](C)[C@@H]1O	> 30
CO[C@]1(C)C[C@H](O[C@H]2[C@H](C)[C@@H](O[C@@H]3O[C@H](C)C[C@H](N(C)C)[C@H]3O)[C@](C)(O)C[C@@H](C)CN(C)C(=O)[C@@H](C(C)C)NC(=O)C[C@@H](Cc3ccc(NC(=O)[C@H](Cc4ccccc4Cl)NC(=O)Cc4ccccc4)cc3)NC(=O)[C@@H]2C)O[C@@H](C)[C@@H]1O	> 30
CO[C@]1(C)C[C@H](O[C@H]2[C@H](C)[C@@H](O[C@@H]3O[C@H](C)C[C@H](N(C)C)[C@H]3O)[C@](C)(O)C[C@@H](C)CN(C)C(=O)C[C@@H](Cc3ccc(NC(=O)[C@H](Cc4ccccc4Cl)NC(=O)Cc4ccccc4)cc3)NC(=O)[C@@H]3CCC[C@H]3NC(=O)[C@@H]2C)O[C@@H](C)[C@@H]1O	5.9
CO[C@]1(C)C[C@H](O[C@H]2[C@H](C)[C@@H](O[C@@H]3O[C@H](C)C[C@H](N(C)C)[C@H]3O)[C@](C)(O)C[C@@H](C)CN(C)C(=O)C[C@@H](Cc3ccc(NC(=O)[C@H](Cc4ccccc4Cl)NC(=O)Cc4ccccc4)cc3)NC(=O)C[C@@H](CC(C)C)NC(=O)[C@@H]2C)O[C@@H](C)[C@@H]1O	> 30
CO[C@]1(C)C[C@H](O[C@H]2[C@H](C)[C@@H](O[C@@H]3O[C@H](C)C[C@H](N(C)C)[C@H]3O)[C@](C)(O)C[C@@H](C)CN(C)C(=O)C[C@@H](Cc3ccc(NC(=O)[C@H](Cc4ccccc4Cl)NC(=O)Cc4ccccc4C)cc3)NC(=O)[C@H](C(C)C)NC(=O)[C@@H]2C)O[C@@H](C)[C@@H]1O	0.116
CO[C@]1(C)C[C@H](O[C@H]2[C@H](C)[C@@H](O[C@@H]3O[C@H](C)C[C@H](N(C)C)[C@H]3O)[C@](C)(O)C[C@@H](C)CN(C)C(=O)C[C@@H](Cc3ccc(NC(=O)[C@H](Cc4ccccc4Cl)NC(=O)Cc4ccccc4)cc3)NC(=O)[C@H](CC(C)C)NC(=O)[C@@H]2C)O[C@@H](C)[C@@H]1O	12.6
CO[C@]1(C)C[C@H](O[C@H]2[C@H](C)[C@@H](O[C@@H]3O[C@H](C)C[C@H](N(C)C)[C@H]3O)[C@](C)(O)C[C@@H](C)CN(C)C(=O)C[C@@H](Cc3ccc(NC(=O)[C@H](Cc4ccccc4Cl)NC(=O)Cc4ccccc4)cc3)NC(=O)CC3(CCCC3)CNC(=O)[C@@H]2C)O[C@@H](C)[C@@H]1O	6.76
CC[C@H](C)[C@@H]1NC(=O)[C@H](C)[C@@H](O[C@H]2C[C@@](C)(OC)[C@@H](O)[C@H](C)O2)[C@H](C)[C@@H](O[C@@H]2O[C@H](C)C[C@H](N(C)C)[C@H]2O)[C@](C)(O)C[C@@H](C)CN(C)C(=O)C[C@@H](Cc2ccc(NC(=O)[C@H](Cc3ccccc3Cl)NC(=O)Cc3ccccc3)cc2)NC1=O	2.6
CO[C@]1(C)C[C@H](O[C@H]2[C@H](C)[C@@H](O[C@@H]3O[C@H](C)C[C@H](N(C)C)[C@H]3O)[C@](C)(O)C[C@@H](C)CN(C)C(=O)C[C@@H](Cc3ccc(NC(=O)[C@H](Cc4ccccc4Cl)NC(=O)Cc4ccccc4)cc3)NC(=O)[C@@H](C(C)C)NC(=O)[C@@H]2C)O[C@@H](C)[C@@H]1O	> 30
CO[C@]1(C)C[C@H](O[C@H]2[C@H](C)[C@@H](O[C@@H]3O[C@H](C)C[C@H](N(C)C)[C@H]3O)[C@](C)(O)C[C@@H](C)CN(C)C(=O)C[C@H](Cc3ccc(NC(=O)[C@H](Cc4ccccc4Cl)NC(=O)Cc4ccccc4)cc3)NC(=O)[C@H](C(C)C)NC(=O)[C@@H]2C)O[C@@H](C)[C@@H]1O	> 30
CO[C@]1(C)C[C@H](O[C@H]2[C@H](C)[C@@H](O[C@@H]3O[C@H](C)C[C@H](N(C)C)[C@H]3O)[C@](C)(O)C[C@@H](C)CN(C)C(=O)[C@@H](Cc3ccc(NC(=O)[C@H](Cc4ccccc4Cl)NC(=O)Cc4ccccc4)cc3)NC(=O)C[C@H](C(C)C)NC(=O)[C@@H]2C)O[C@@H](C)[C@@H]1O	> 30
CO[C@]1(C)C[C@H](O[C@H]2[C@H](C)[C@@H](O[C@@H]3O[C@H](C)C[C@H](N(C)C)[C@H]3O)[C@](C)(O)C[C@@H](C)CN(C)C(=O)C[C@@H](Cc3ccc(NC(=O)[C@H](Cc4ccccc4Cl)NC(=O)Cc4ccccc4)cc3)NC(=O)[C@H](C)NC(=O)[C@@H]2C)O[C@@H](C)[C@@H]1O	15
CO[C@]1(C)C[C@H](O[C@H]2[C@H](C)[C@@H](O[C@@H]3O[C@H](C)C[C@H](N(C)C)[C@H]3O)[C@](C)(O)C[C@@H](C)CN(C)C(=O)[C@@H](Cc3ccc(NC(=O)[C@H](Cc4ccccc4Cl)NC(=O)Cc4ccccc4)cc3)NC(=O)C[C@@H](C(C)C)NC(=O)[C@@H]2C)O[C@@H](C)[C@@H]1O	> 30
CO[C@]1(C)C[C@H](O[C@H]2[C@H](C)[C@@H](O[C@@H]3O[C@H](C)C[C@H](N(C)C)[C@H]3O)[C@](C)(O)C[C@@H](C)CN(C)C(=O)C[C@@H](Cc3ccc(NC(=O)[C@H](Cc4ccccc4Cl)NC(=O)Cc4ccccc4)cc3)NC(=O)C[C@H](C(C)C)NC(=O)[C@@H]2C)O[C@@H](C)[C@@H]1O	> 30
CO[C@]1(C)C[C@H](O[C@H]2[C@H](C)[C@@H](O[C@@H]3O[C@H](C)C[C@H](N(C)C)[C@H]3O)[C@](C)(O)C[C@@H](C)CN(C)C(=O)[C@H](Cc3ccc(NC(=O)[C@H](Cc4ccccc4Cl)NC(=O)Cc4ccccc4)cc3)NC(=O)[C@@H](C(C)C)NC(=O)[C@@H]2C)O[C@@H](C)[C@@H]1O	1.4
CO[C@]1(C)C[C@H](O[C@H]2[C@H](C)[C@@H](O[C@@H]3O[C@H](C)C[C@H](N(C)C)[C@H]3O)[C@](C)(O)C[C@@H](C)CN(C)C(=O)[C@@H](C(C)C)NC(=O)C[C@H](Cc3ccc(NC(=O)[C@H](Cc4ccccc4Cl)NC(=O)Cc4ccccc4)cc3)NC(=O)[C@@H]2C)O[C@@H](C)[C@@H]1O	0.256
CO[C@]1(C)C[C@H](O[C@H]2[C@H](C)[C@@H](O[C@@H]3O[C@H](C)C[C@H](N(C)C)[C@H]3O)[C@](C)(O)C[C@@H](C)CN(C)C(=O)[C@@H](Cc3ccc(NC(=O)[C@H](Cc4ccccc4Cl)NC(=O)Cc4ccccc4)cc3)NC(=O)[C@@H](C(C)C)CNC(=O)[C@@H]2C)O[C@@H](C)[C@@H]1O	> 30
CO[C@]1(C)C[C@H](O[C@H]2[C@H](C)[C@@H](O[C@@H]3O[C@H](C)C[C@H](N(C)C)[C@H]3O)[C@](C)(O)C[C@@H](C)CN(C)C(=O)C[C@H](Cc3ccc(NC(=O)[C@H](Cc4ccccc4Cl)NC(=O)Cc4ccccc4)cc3)NC(=O)[C@@H](C(C)C)NC(=O)[C@@H]2C)O[C@@H](C)[C@@H]1O	> 30
CO[C@]1(C)C[C@H](O[C@H]2[C@H](C)[C@@H](O[C@@H]3O[C@H](C)C[C@H](N(C)C)[C@H]3O)[C@](C)(O)C[C@@H](C)CN(C)C(=O)[C@H](C(C)C)NC(=O)C[C@@H](Cc3ccc(NC(=O)[C@H](Cc4ccccc4Cl)NC(=O)Cc4ccccc4)cc3)NC(=O)[C@@H]2C)O[C@@H](C)[C@@H]1O	> 30
CO[C@]1(C)C[C@H](O[C@H]2[C@H](C)[C@@H](O[C@@H]3O[C@H](C)C[C@H](N(C)C)[C@H]3O)[C@](C)(O)C[C@@H](C)CN(C)C(=O)C[C@@H](Cc3ccc(NC(=O)[C@H](Cc4ccccc4Cl)NC(=O)Cc4ccccc4)cc3)NC(=O)[C@@H](C(C)C)CNC(=O)[C@@H]2C)O[C@@H](C)[C@@H]1O	24.8
CO[C@]1(C)C[C@H](O[C@H]2[C@H](C)[C@@H](O[C@@H]3O[C@H](C)C[C@H](N(C)C)[C@H]3O)[C@](C)(O)C[C@@H](C)CN(C)C(=O)C[C@@H](Cc3ccc(NC(=O)[C@H](Cc4ccccc4Cl)NC(=O)Cc4ccccc4)cc3)NC(=O)[C@H](C(C)(C)C)NC(=O)[C@@H]2C)O[C@@H](C)[C@@H]1O	1.6

From ChEMBL document CHEMBL5033997, “Macrolide Inspired Macrocycles as Modulators of the IL-17A/IL-17RA Interaction” (J Med Chem, 2021)
